Test results from patent publication US8815321B2, “Geranylamine derivatives as flavouring agents” (Givaudan S.A., priority 2009, dated 2014).

What was measured:
Format in all cases: in vivo, human
umami-taste [1] = assay: Sensory panel tasting of flavoured potato chips; settings: for taste description of potato chips: trained sensory panel of 20 women
Procedure: Plain potato chips were prepared. One part was flavoured with 1.2% sodium chloride (sample A) One part was flavoured with 1.2% sodium chloride and 0.3% mono sodium glutamate (sample b) One part was flavoured with 1.2% sodium chloride and 25 ppm geranyl lactamide (sample C). The samples were tasted by a trained sensory panel composed of 20 women aged between 30 and 60.

umami-taste [2] = assay: Flavourist tasting of tomato soup; settings: tomato soup containing 15 ppm geranyl lactamide; flavourists (2 male, 2 female)
Procedure: A tomato soup mix was prepared from 9.4 g of sodium chloride, 1 g of mono sodium glutamate, 0.08 g ribonucleotides (ex yeast), 32 g of tomato powder (ex […]), 25.1 g of glucose, 21 g of starch (Ultrasperse 5 ex National Starch), 5 g of palm fat powder, 3 g of yeast powder, 1 g of onion powder, 0.15 g of carrot powder, 0.05 g of ground white pepper, 0.3 g of celery extract powder, 0.05 g of ground laurel leaf powder, and 1.85 g of sucrose. 25 G of the well mixed ingredients was added to 250 g of boiling water and stirred until completely dissolved. The reference soup was compared with a batch of the same soup containing 15 ppm of geranyl lactamide.

umami-taste [3] = assay: Sensory panel tasting of 0.3% NaCl solution; settings: Solution B: 0.3% NaCl and 10 ppm geranyl lactamide; trained sensory panel of 20 women; Solution A (0.3% NaCl only): salty
Procedure: Two solutions were prepared: A a solution of 0.3% NaCl B a solution of 0.3% NaCl and 10 ppm geranyl lactamide The samples were tasted by a trained sensory panel composed of 20 women aged between 30 and 60.

umami-taste [4] = assay: Flavourist tasting of tomato ketchup; settings: tomato ketchup with 20 ppm geranyl lactamide; flavourists (2 male, 2 female)
Procedure: A tomato ketchup was prepared from 19% tomato paste (28-30% dry weight), 8% of vinegar (15%), 3% of sodium chloride, 20% of sugar and 50% of water. To one half of the batch was added 20 ppm of geranyl lactamide.

umami-taste [5] = assay: Sensory panel tasting of 0.3% NaCl and 0.03% MSG solution; settings: Solution B: 0.3% NaCl, 0.03% MSG and 10 ppm geranyl lactamide, trained sensory panel of 20 women, Solution A without compound: salty
Procedure: Two solutions were prepared: A a solution of 0.3% NaCl and 0.03% MSG B a solution of 0.3% NaCl, 0.03% MSG and 10 ppm geranyl lactamide The samples were tasted by a trained sensory panel composed of 20 women aged between 30 and 60.

CC(C)=CCC/C(C)=C/CNC(=O)C(C)O (stereo not shown) [geranyl lactamide]
panel preference among potato chip samples (umami-taste [1]; sample C (1.2% sodium chloride and 25 ppm geranyl lactamide) vs sample A (NaCl) and sample B (NaCl and 0.3% MSG)): preferred over the other two samples | taste description of potato chips (umami-taste [1]; sample C: 1.2% sodium chloride and 25 ppm geranyl lactamide): salty, umami, long lasting, savoury, bouillon | taste of test soup compared with reference soup (umami-taste [2]): more umami, had a long-lasting savoury aspect, was more salty and was more complex than the base soup | taste description (findings of the panel) (umami-taste [3]): salty, umami | taste of test ketchup compared with base ketchup (umami-taste [4]): clearly more umami, more salty and had a pleasant savoury note | taste description (findings of the panel) (umami-taste [5]): salty, umami, more bouillon-like, more complex, less sweet

N[C@@H](CCC(=O)O)C(=O)[O-].[Na+] [mono sodium glutamate, reference compound]
taste description of potato chips (umami-taste [1]; sample B: 1.2% sodium chloride and 0.3% mono sodium glutamate): salty and umami
